Assay results reported in US11846631B2, “Methods for determining drug effects on a mature cardiomyocyte” (ORGANOS, INC., priority 2018, dated 2023).

Experiments:
ICaL = ICaL (Homo sapiens, UniProt Q13936); conditions: from the literature; cited from earlier work
IKr = IKr (Homo sapiens, UniProt Q12809); conditions: from the literature; cited from earlier work
the other currents = test: Inversion of voltage and calcium traces measured in hiPSC-CMs in a cardiac MPS (channel block identification); type: cell-based, human; conditions: cisapride 10 nM; measured MPS data of hiPSC-CMs (FIG. 5)
Source text: [formula] […] The Minimization Procedure

Sequence of ICaL (Q13936 whole entry): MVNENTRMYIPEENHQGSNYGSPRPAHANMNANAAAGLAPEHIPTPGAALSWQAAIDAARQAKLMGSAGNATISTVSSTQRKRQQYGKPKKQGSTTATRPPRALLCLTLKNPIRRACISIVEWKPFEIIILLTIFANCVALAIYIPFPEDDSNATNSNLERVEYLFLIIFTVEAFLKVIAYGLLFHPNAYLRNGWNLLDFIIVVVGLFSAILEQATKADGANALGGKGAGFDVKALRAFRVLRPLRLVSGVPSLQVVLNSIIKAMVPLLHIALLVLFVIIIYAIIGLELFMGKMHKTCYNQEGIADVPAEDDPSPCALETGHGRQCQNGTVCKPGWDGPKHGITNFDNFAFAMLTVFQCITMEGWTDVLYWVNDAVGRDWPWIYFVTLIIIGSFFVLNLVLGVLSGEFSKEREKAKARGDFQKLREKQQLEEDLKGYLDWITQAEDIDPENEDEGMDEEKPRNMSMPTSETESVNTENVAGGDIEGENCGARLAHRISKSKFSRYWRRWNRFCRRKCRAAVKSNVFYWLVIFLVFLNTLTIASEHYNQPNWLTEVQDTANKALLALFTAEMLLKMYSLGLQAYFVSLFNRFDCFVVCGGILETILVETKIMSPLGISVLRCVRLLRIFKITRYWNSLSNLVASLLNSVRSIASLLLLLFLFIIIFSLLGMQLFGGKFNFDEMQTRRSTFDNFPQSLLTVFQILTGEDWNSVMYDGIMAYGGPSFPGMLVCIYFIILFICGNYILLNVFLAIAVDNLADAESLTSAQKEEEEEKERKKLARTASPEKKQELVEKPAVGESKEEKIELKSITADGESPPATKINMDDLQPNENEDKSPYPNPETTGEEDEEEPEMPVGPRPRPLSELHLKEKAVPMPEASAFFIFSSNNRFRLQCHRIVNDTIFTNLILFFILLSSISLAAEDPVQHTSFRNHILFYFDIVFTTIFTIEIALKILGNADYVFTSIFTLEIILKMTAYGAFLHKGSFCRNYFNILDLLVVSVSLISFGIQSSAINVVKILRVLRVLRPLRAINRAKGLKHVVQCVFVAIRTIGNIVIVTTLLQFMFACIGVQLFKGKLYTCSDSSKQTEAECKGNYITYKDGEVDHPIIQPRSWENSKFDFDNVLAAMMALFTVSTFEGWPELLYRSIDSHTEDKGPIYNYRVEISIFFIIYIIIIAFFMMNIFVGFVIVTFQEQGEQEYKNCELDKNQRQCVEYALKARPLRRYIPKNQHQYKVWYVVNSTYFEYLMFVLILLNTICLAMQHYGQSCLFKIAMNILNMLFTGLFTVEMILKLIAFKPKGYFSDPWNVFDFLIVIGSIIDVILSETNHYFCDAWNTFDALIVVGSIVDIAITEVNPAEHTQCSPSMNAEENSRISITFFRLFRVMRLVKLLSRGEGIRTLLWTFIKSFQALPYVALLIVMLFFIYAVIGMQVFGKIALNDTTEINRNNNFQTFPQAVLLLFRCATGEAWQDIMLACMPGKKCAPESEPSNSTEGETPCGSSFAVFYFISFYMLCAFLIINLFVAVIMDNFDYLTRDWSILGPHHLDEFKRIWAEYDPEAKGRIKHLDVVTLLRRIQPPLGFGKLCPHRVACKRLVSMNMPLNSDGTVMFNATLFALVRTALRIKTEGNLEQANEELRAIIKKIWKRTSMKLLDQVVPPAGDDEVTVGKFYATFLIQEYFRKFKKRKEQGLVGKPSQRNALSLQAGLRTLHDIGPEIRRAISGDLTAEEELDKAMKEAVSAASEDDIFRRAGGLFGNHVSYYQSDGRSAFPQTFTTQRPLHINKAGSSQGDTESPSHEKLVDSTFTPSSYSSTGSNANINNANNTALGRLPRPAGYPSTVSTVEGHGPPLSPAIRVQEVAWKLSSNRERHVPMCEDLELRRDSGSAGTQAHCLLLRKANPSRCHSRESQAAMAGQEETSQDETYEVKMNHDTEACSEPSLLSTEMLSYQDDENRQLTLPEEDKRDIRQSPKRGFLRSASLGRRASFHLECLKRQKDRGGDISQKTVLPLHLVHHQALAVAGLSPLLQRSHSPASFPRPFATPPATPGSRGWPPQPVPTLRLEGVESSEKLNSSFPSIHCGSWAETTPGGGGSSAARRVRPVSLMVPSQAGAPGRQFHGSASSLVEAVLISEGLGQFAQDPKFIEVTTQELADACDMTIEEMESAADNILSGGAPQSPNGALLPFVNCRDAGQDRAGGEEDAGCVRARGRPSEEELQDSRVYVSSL
Sequence of ICaL (Q08289 whole entry partner): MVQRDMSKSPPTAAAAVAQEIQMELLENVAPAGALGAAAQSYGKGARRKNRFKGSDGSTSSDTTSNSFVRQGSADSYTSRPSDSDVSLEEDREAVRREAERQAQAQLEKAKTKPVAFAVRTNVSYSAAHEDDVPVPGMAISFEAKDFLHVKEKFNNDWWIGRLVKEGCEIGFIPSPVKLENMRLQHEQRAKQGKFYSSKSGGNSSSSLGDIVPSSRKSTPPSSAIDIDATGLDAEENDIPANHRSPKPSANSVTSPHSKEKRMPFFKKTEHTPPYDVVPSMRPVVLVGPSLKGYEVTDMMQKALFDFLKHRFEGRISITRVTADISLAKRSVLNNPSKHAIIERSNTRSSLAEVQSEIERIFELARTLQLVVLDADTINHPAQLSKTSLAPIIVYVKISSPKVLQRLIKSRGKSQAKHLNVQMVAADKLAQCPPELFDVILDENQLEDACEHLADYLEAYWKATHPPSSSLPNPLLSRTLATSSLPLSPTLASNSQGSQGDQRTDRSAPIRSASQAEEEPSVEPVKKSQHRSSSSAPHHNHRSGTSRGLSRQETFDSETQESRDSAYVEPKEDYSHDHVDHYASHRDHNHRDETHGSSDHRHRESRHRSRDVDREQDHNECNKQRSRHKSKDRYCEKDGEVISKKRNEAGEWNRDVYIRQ
Sequence of ICaL (P54289 25-946 partner limits assumed): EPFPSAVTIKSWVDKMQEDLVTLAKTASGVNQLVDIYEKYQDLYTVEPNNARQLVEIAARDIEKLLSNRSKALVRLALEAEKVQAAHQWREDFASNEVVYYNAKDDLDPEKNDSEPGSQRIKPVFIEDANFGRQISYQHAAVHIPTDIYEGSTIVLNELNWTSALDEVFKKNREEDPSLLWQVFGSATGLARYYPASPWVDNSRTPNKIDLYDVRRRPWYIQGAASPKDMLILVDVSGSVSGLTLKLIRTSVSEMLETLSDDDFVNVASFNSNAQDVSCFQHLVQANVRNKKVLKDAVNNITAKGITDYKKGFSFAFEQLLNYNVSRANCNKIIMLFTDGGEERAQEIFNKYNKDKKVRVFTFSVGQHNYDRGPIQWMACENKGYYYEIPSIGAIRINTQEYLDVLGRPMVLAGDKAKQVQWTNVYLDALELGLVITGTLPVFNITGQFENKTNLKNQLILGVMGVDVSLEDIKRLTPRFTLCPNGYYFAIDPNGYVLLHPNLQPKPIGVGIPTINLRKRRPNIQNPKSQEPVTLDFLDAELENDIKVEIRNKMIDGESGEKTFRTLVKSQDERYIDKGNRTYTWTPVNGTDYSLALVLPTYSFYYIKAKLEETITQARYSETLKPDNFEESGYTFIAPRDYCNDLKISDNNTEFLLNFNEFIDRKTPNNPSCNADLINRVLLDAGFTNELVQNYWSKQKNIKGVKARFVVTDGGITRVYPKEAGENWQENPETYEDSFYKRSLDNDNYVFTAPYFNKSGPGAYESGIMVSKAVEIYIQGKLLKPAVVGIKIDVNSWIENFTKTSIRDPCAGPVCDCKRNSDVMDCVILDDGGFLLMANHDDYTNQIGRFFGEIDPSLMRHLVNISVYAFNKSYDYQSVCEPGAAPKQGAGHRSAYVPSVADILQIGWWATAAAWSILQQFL
Sequence of ICaL (P54289 947-1103 partner limits assumed): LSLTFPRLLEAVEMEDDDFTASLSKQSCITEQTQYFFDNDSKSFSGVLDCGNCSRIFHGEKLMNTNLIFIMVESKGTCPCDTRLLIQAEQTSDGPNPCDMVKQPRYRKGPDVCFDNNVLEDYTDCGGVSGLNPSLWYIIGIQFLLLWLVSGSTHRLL
Sequence of IKr (Q12809 whole entry): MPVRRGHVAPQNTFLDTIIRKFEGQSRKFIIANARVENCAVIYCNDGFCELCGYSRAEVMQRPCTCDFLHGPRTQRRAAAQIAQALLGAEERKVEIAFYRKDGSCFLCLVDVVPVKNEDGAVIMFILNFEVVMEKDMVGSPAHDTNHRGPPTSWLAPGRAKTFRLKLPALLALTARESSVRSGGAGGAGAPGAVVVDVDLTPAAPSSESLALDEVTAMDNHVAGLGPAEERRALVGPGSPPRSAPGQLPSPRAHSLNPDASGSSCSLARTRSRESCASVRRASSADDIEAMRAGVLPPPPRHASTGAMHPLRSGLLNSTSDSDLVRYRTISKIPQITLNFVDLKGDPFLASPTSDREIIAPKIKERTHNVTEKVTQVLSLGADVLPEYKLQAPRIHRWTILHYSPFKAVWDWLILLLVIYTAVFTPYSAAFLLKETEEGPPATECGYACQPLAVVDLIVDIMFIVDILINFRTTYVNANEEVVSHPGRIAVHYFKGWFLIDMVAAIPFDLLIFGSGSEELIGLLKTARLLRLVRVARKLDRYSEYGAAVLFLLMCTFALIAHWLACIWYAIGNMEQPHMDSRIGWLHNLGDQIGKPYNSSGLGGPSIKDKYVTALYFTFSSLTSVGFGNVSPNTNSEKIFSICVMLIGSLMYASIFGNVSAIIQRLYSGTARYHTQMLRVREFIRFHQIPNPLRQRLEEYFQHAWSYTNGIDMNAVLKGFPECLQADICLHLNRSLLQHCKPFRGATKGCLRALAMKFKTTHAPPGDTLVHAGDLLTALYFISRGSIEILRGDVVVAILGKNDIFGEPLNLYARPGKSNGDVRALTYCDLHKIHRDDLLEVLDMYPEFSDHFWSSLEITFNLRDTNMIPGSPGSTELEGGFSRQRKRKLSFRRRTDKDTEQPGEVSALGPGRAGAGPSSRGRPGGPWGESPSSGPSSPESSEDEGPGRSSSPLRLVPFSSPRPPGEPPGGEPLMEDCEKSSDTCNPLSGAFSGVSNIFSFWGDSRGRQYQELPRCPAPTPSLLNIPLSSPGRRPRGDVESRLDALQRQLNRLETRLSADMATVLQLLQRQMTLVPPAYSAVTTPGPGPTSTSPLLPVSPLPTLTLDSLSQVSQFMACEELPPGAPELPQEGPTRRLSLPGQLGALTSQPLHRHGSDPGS

SMILES | Known effect on ICaL (ICaL) | Known effect on IKr (IKr) | Effect on the other currents, full inversion procedure (the other currents)
COc1ccc(CCN(C)CCCC(C#N)(c2ccc(OC)c(OC)c2)C(C)C)cc1OC (stereo not drawn) [verapamil] | blocks | – | –
COc1cc(N)c(Cl)cc1C(=O)NC1CCN(CCCOc2ccc(F)cc2)CC1OC (stereo not drawn) [cisapride] | – | blocks | nearly unaffected
